Earlier results in US20240374563A1, “ANTICHOLINERGIC COMPOUNDS FOR USE IN TREATING NEUROMUSCULAR DISORDERS” (UNIVERSITY OF MONTRÉAL, priority 2022, published 2024).

Tested on: ALS patients
Conditions: cited from earlier work

Compound: Nc1nc2ccc(OC(F)(F)F)cc2s1 [Riluzole]
- share of ALS patients who benefit: 20%
